What was measured:
primary rat adipocytes = experiment: Lipogenesis in rat adipocytes; assay type: cell-based
Procedure: Lipogenesis in Rat Adipocytes
As a measure of in vitro potency of the insulins of the invention, lipogenesis can be used. Primary rat adipocytes are isolated from the epididymale fat pads and incubated with 3H-glucose in buffer containing e.g. 1% fat free HSA and either standard (human insulin, HI) or insulin of the invention. The labelled glucose is converted into extractable lipids in a concentration dependent way, resulting in full concentration response curves. The result is expressed as relative potency (%) with 95% confidence limits of insulin of the invention compared to standard (HI).

PCSK9 = target: T1, PCSK9 (Homo sapiens, UniProt Q8NBP7); experiment: PCSK9-LDL-R binding competitive ELISA; settings: apparent binding affinity
T1 construct: purchased BioSite/BPSBioscience (PCSK9); R & D systems (rhLDL-R) 71304 (PCSK9); 2148-LD (rhLDL-R); host or cells: rhLDL-R: NSO-derived

HepG2 cells = experiment: LDL uptake assay in HepG2 cells in the presence of PCSK9; assay type: cell-based, human; settings: PCSK9 10 ug/mL
[1] = target: T2, human insulin receptor (IR), solubilised human IR-A (Homo sapiens, UniProt P06213); experiment: Insulin receptor affinity on solubilised receptors, competition binding SPA, 0% HSA; settings: Table 3, example numbers, binding affinity relative to human insulin
T2 construct: baby hamster kidney (BHK) cells overexpressing the IR-A holoreceptor; made in house; host or cells: baby hamster kidney (BHK) cells overexpressing IR-A; detergent-solubilised, WGA semipurified

[2] = target: T2, human insulin receptor (IR), solubilised human IR-A; experiment: Insulin receptor affinity SPA, related assay with 1.5% HSA in binding buffer; settings: Table 3, example numbers, binding affinity relative to human insulin
[3] = in vivo
[4] = Table 3, example numbers, potency relative to human insulin
[5] = Table 4, labels are comparator compound numbers, relative to human insulin
[6] = Table 5, example numbers, Ki converted from IC50
[7] = Table 6, labels are comparator compound numbers

Row | Substance | Lipogenesis 1% HSA (% rel to HI) (primary rat adipocytes; [4]) | Lipogenesis 1% HSA (% rel to HI) (primary rat adipocytes; [5]) | further results
1 | EGF(A)(301L, 309R, 312E, 321E)-[GAQP]2-Insulin(B3E, B29K(eicosanedioyl-gGlu-2×OEG), desB30) [Example 6] | 0.06 % rel to HI | 0.06 % rel to HI | Ki (PCSK9; [6]): 2.49 nM
2 | EGF(A)(301L, 309R, 312E, 321E)-[GAQP]2-Insulin(B3E, B29K(hexadecanedioyl-gGlu-2×OEG), desB30) [Example 1] | 0.49 % rel to HI | 0.14 % rel to HI | –
3 | EGF(A)(301L, 309R, 312E, 321E)-[GAQP]2-Insulin(B3E, B29K(octadecanedioyl-gGlu-2×OEG), desB30) [Example 3] | 0.16 % rel to HI | 0.06 % rel to HI | –
4 | EGF(A)(301L, 309R, 312E, 321E)-[GAQP]2-Insulin(B3E, B29K(octadecanedioyl-gGlu-OEG), desB30) [Example 5] | – | 0.44 % rel to HI | –
5 | EGF(A)(301L, 309R, 312E, 321E)-[GAQP]2-Insulin(B29K(eicosanedioyl-gGlu-2×OEG), desB30) [Example 7] | – | 0.18 % rel to HI | Ki (PCSK9; [7]): 1.74 nM
6 | EGF(A)(301L, 309R, 312E, 321E)-[GAQP]2-Insulin(B29K(octadecanedioyl-gGlu-2×OEG), desB30) [Example 4] | 0.13 % rel to HI | 0.07 % rel to HI | –
7 | EGF(A)(301L, 309R, 312E, 321E)-[GAQP]3-Insulin(A14E, B29K(octadecanedioyl-gGlu-2×OEG), desB30) [Example 10] | 0.12 % rel to HI | – | EC50 (HepG2 cells; [7]): 152 nM
8 | EGF(A)(301L, 309R, 312E, 321E)-[GAQP]4-Insulin(A14E, B29K(octadecanedioyl-gGlu-2×OEG), desB30) [Example 11] | 0.12 % rel to HI | – | –
9 | EGF(A)(301L, 309R, 312E, 321E)-[GAQP]4-Insulin(B29K(octadecanedioyl-gGlu-2×OEG), desB30) [Example 12] | 0.14 % rel to HI | – | –
10 | EGF(A)(301L, 309R, 312E, 321E)-[GAQP]6-Insulin(A14E, B29K(eicosanedioyl-gGlu-2×OEG), desB30 [Example 16] | 0.08 % rel to HI | – | hIR-A 0% HSA (% rel to HI) [1]: 4.77 % rel to HI; hIR-A 1.5% HSA (% rel to HI) [2]: 0.26 % rel to HI; Ki (PCSK9; [6]): 1.75 nM
11 | EGF(A)(301L, 309R, 312E, 321E)-[GAQP]6-Insulin(A14E, B29K(octadecanedioyl-gGlu-2×OEG), desB30) [Example 13] | 0.11 % rel to HI | – | hIR-A 0% HSA (% rel to HI) [1]: 5.53 % rel to HI; hIR-A 1.5% HSA (% rel to HI) [2]: 0.35 % rel to HI; Ki (PCSK9; [6]): 1.92 nM; EC50 (HepG2 cells; Table 5, example numbers): 170 nM; Rat iv Mean Residence Time MRT [3]: 13.56 h
12 | EGF(A)(301L, 309R, 312E, 321E)-[GAQP]6-Insulin(A14E, B29K(octadecanedioyl-gGlu-OEG), desB30) [Example 15] | 0.08 % rel to HI | – | hIR-A 0% HSA (% rel to HI) [1]: 5.70 % rel to HI; hIR-A 1.5% HSA (% rel to HI) [2]: 0.23 % rel to HI; Ki (PCSK9; [6]): 2.07 nM
13 | EGF(A)(301L, 309R, 312E, 321E)-[GAQP]6-Insulin(B29K(octadecanedioyl-gGlu-2×OEG), desB30) [Example 14] | 0.10 % rel to HI | – | –
14 | EGF(A)(301L, 309R, 312E, 321E)-[GAQP]10-Insulin(B29K(octadecanedioyl-gGlu-2×OEG), desB30) [Example 2] | – | 0.06 % rel to HI | –
15 | EGF(A)(301L, 309R, 312E, 321E)-[GAQP]12-Insulin(B29K(octadecanedioyl-gGlu-2×OEG), desB30) [Example 18] | 0.09 % rel to HI | – | –
16 | EGF(A)(301L, 309R, 312E, 321E)-[GAQP]13-Insulin(B29K(octadecanedioyl-gGlu-2×OEG), desB30) [Example 9] | 0.12 % rel to HI | – | –
17 | EGF(A)(301L, 309R, 312E, 321E)-[GAQP]19-Insulin(A14E, B29K(eicosanedioyl-gGlu-2×OEG), desB30) [Example 23] | 0.02 % rel to HI | – | hIR-A 0% HSA (% rel to HI) [1]: 2.89 % rel to HI; hIR-A 1.5% HSA (% rel to HI) [2]: 0.14 % rel to HI; EC50 (HepG2 cells; Table 5, example numbers): 126 nM
18 | EGF(A)(301L, 309R, 312E, 321E)-[GAQP]19-Insulin(B29K(eicosanedioyl-gGlu-2×OEG), desB30) [Example 22] | 0.06 % rel to HI | – | –
19 | EGF(A)(301L, 309R, 312E, 321E)-[GAQP]19-Insulin(B29K(octadecanedioyl-gGlu-2×OEG), desB30) [Example 19] | 0.09 % rel to HI | – | –
20 | EGF(A)(301L, 309R, 312E, 321E)-[GAQP]119-Insulin(A14E, B29K(octadecanedioyl-gGlu-2×OEG), desB30) [Example 20] | 0.03 % rel to HI | – | EC50 (HepG2 cells; Table 5, example numbers): 123 nM
21 | EGF(A)(301L, 309R, 312E, 321E)-[GAQP]119-Insulin(B3E, B29K(eicosanedioyl-gGlu-2×OEG), desB30) [Example 24] | 0.06 % rel to HI | – | –
22 | EGF(A)(301L, 309R, 312E, 321E)-[GAQP]119-Insulin(B3E, B29K(octadecanedioyl-gGlu-2×OEG), desB30) [Example 21] | 0.07 % rel to HI | – | –
23 | EGF(A)(301L, 309R, 312E, 321E)-[GQAP]2-Insulin(B29K(octadecanedioyl-gGlu-2×OEG), desB30) [Example 8] | 0.14 % rel to HI | 0.30 % rel to HI | –

From patent US11649269B2, “Bifunctional compounds comprising insulin peptides and EGF(A) peptides” (Novo Nordisk A/S, priority 2018, dated 2023)
